Experiment [1] has as its system super sensitive Gram-negative Escherichia coli (E. coli) BAS849. Put plainly: Antibacterial activity, microbroth dilution MIC, E. coli BAS849. To be noted: Escherichia coli; E. coli BAS849, microbroth dilution; read-out: MIC, BAS849. It counts as cell-based.
Experiment [2] deals with control Gram-negative E. coli 25922 strain. Put plainly: Antibacterial activity, microbroth dilution MIC, E. coli 25922. To be noted: Escherichia coli; E. coli 25922, microbroth dilution; read-out: MIC, 25922. Format: cell-based, Escherichia coli. Background: In broth dilution the organism is exposed to a series of concentrations in liquid medium.
The test system of experiment [3] is Gram-positive Staphylococcus aureus (S. aureus) 29213. Put plainly: Antibacterial activity, microbroth dilution MIC, S. aureus 29213. Format: cell-based. To be noted: Staphylococcus aureus; S. aureus 29213, microbroth dilution; read-out: MIC, 29213.
Experiment [4] relates to quinolone resistant E. coli LZ3111. Put plainly: Antibacterial activity, MIC, quinolone resistant E. coli LZ3111. The note with it: Escherichia coli, read-out: MIC, LZ3111. It counts as cell-based, Escherichia coli. The source says: (§1) The antibacterial activity from a microbroth dilution method may be presented as the minimum inhibitory concentration (MIC in […]). The MIC value is the lowest concentration of a drug which prevents macroscopically visible bacterial growth under test conditions.
Mutations in these regions are known to confer a high level resistance to the quinolone class of antibiotics.

Experiment [5] relates to Acinetobacter baumannii (A. baumannii) BAA747. Put plainly: Antibacterial activity, MIC, A. baumannii BAA747. It counts as cell-based. The note with it: Acinetobacter baumannii; A. baumannii BAA747; read-out: MIC BAA747.
In experiment [6] the test system is Klebsiella pneumoniae (K. pneumoniae) 35657. Put plainly: Antibacterial activity, MIC, K. pneumoniae 35657. Format: cell-based. The note with it: Klebsiella pneumoniae.
In experiment [7] the test system is resistant A. baumannii MXX2240 (MDR clinical isolate). Put plainly: Antibacterial activity, MIC, resistant A. baumannii MXX2240. The note with it: Acinetobacter baumannii, resistant A. baumannii MMX2240, MDR clinical isolate; read-out: MIC MMX2240. Format: cell-based, Acinetobacter baumannii.
Experiment [8] deals with resistant K. pneumoniae MXX1232 (MDR clinical isolate). Put plainly: Antibacterial activity, MIC, resistant K. pneumoniae MXX1232. The note with it: Klebsiella pneumoniae; resistant K. pneumoniae MMX1232, MDR clinical isolate; read-out: MIC MMX1232. It counts as cell-based, Klebsiella pneumoniae.
Experiment [9] deals with Pseudomonas aeruginosa (P. aeruginosa) 27853. The experiment is described as follows: Antibacterial activity, MIC, P. aeruginosa 27853. It counts as cell-based. To be noted: Pseudomonas aeruginosa, P. aeruginosa 27853; read-out: MIC 27853.
From the text: as §1
Antibacterial activity of test compounds against the Gram-negative bacterium Pseudomonas aeruginosa (P. aeruginosa) 27853 is shown in Table 5.

SMILES strings stand for the structures. Values after ≈ are worked out from the molar mass of the structure shown.

Broadly, the MIC is the lowest concentration that inhibits growth of the organism. As to `C/C=C/c1c(-c2ccc(N(C)C)cc2)[nH]c(=O)c(C(=O)O)c1O` [Cpd 330, (E)-6-(4-(dimethylamino)phenyl)-4-hydroxy-2-oxo-5-(prop-1-enyl)-1,2-dihydropyridine-3-carboxylic acid], the MIC in experiment [1] was 1 to 3.5 µg/mL (≈ 3.18 to 11.1 µM); in experiment [2] it was 12.5 to 150 µg/mL (≈ 39.8 to 477 µM); in experiment [3], 12.5 to 150 µg/mL (≈ 39.8 to 477 µM); in experiment [4], 12.5 to 150 µg/mL (≈ 39.8 to 477 µM); in experiment [5], 12.5 to 150 µg/mL (≈ 39.8 to 477 µM); in experiment [6], 12.5 to 150 µg/mL (≈ 39.8 to 477 µM). The minimum inhibitory concentration (MIC) in experiment [7], in experiment [8] and in experiment [9] was 12.5 to 150 µg/mL (≈ 39.8 to 477 µM) in each case.

In the case of `CCc1cc(C(=O)O)c(=O)[nH]c1-c1ccc(N2CCC(c3ccccn3)C2)cc1` (stereo not drawn) [Cpd 227, 5-ethyl-2-oxo-6-{4-[3-(pyridin-2-yl)pyrrolidin-1-yl]phenyl}-1,2-dihydropyridine-3-carboxylic acid], the MIC in experiment [1] is below 1 µg/mL; in experiment [2], 1 to 3.5 µg/mL (≈ 2.57 to 8.99 µM); in experiment [3] it was 1 to 3.5 µg/mL (≈ 2.57 to 8.99 µM); in experiment [4], 12.5 to 150 µg/mL (≈ 32.1 to 385 µM); in experiment [5], 1 to 3.5 µg/mL (≈ 2.57 to 8.99 µM); in experiment [6], 3.5 to 12.5 µg/mL (≈ 8.99 to 32.1 µM). Further, the minimal inhibitory concentration (MIC) in [7] was 12.5 to 150 µg/mL (≈ 32.1 to 385 µM); in experiment [8], 12.5 to 150 µg/mL (≈ 32.1 to 385 µM); in experiment [9], 3.5 to 12.5 µg/mL (≈ 8.99 to 32.1 µM).

Regarding `CCc1cc(C(=O)O)c(=O)[nH]c1-c1ccc(N2CCC(NC3CC3)C2)cc1` (stereo not drawn) [Cpd 173, 6-{4-[3-(cyclopropylamino)pyrrolidin-1-yl]phenyl}-5-ethyl-2-oxo-1,2-dihydropyridine-3-carboxylic acid], the MIC is below 1 µg/mL in [1]; 1 to 3.5 µg/mL (≈ 2.72 to 9.53 µM) in experiment [2]; 12.5 to 150 µg/mL (≈ 34 to 408 µM) in experiment [3]; 12.5 to 150 µg/mL (≈ 34 to 408 µM) in [4]; 3.5 to 12.5 µg/mL (≈ 9.53 to 34 µM) in [5]; 1 to 3.5 µg/mL (≈ 2.72 to 9.53 µM) in experiment [6]. Further, the minimum inhibitory concentration (MIC) in experiment [7], in experiment [8] and in experiment [9] was 12.5 to 150 µg/mL (≈ 34 to 408 µM) in each case.

Consider `CCc1c(-c2ccc(N3CCC4(CCN(C)C4)C3)cc2)[nH]c(=O)c(C(=O)O)c1O` (stereo not drawn) [Cpd 322, 5-ethyl-4-hydroxy-6-(4-(7-methyl-2,7-diazaspiro[4.4]nonan-2-yl)phenyl)-2-oxo-1,2-dihydropyridine-3-carboxylic acid], for which the minimal inhibitory concentration (MIC) in experiment [1] was below 1 µg/mL; in experiment [2], below 1 µg/mL; in experiment [3], 3.5 to 12.5 µg/mL (≈ 8.81 to 31.4 µM); in experiment [4] it was 12.5 to 150 µg/mL (≈ 31.4 to 377 µM); in experiment [5], 1 to 3.5 µg/mL (≈ 2.52 to 8.81 µM); in [6] it was 1 to 3.5 µg/mL (≈ 2.52 to 8.81 µM). Besides, the MIC in experiment [7] lay in the range of 12.5 to 150 µg/mL (≈ 31.4 to 377 µM); in experiment [8], 12.5 to 150 µg/mL (≈ 31.4 to 377 µM); in [9] it was 3.5 to 12.5 µg/mL (≈ 8.81 to 31.4 µM).

For the molecule `CCc1c(-c2ccc(N3CCC(N(C)C)C3)nc2)[nH]c(=O)c(C(=O)O)c1O` (stereo not drawn) [Cpd 335, 6-(6-(3-(dimethylamino)pyrrolidin-1-yl)pyridin-3-yl)-5-ethyl-4-hydroxy-2-oxo-1,2-dihydropyridine-3-carboxylic acid], the MIC is 3.5 to 12.5 µg/mL (≈ 9.4 to 33.6 µM) in experiment [1]; 12.5 to 150 µg/mL (≈ 33.6 to 403 µM) in experiment [2]; 12.5 to 150 µg/mL (≈ 33.6 to 403 µM) in experiment [3]; below 1 µg/mL in experiment [4]; 12.5 to 150 µg/mL (≈ 33.6 to 403 µM) in experiment [5]; 12.5 to 150 µg/mL (≈ 33.6 to 403 µM) in experiment [6]. In addition, the minimum inhibitory concentration (MIC) in experiment [7], in [8] and in experiment [9] was 12.5 to 150 µg/mL (≈ 33.6 to 403 µM) in each case.

For `CCc1cc(C(=O)O)c(=O)[nH]c1-c1ccc(N2CCC(O)(CC)C2)cc1` (stereo not drawn) [Cpd 232, 5-ethyl-6-[4-(3-ethyl-3-hydroxypyrrolidin-1-yl)phenyl]-2-oxo-1,2-dihydropyridine-3-carboxylic acid], the MIC in experiment [1] was below 1 µg/mL; in experiment [2], 1 to 3.5 µg/mL (≈ 2.81 to 9.82 µM); in experiment [3], 3.5 to 12.5 µg/mL (≈ 9.82 to 35.1 µM); in experiment [4], 12.5 to 150 µg/mL (≈ 35.1 to 421 µM); in experiment [5], 1 to 3.5 µg/mL (≈ 2.81 to 9.82 µM); in [6], 1 to 3.5 µg/mL (≈ 2.81 to 9.82 µM). Besides, the minimum inhibitory concentration (MIC) in experiment [7], in experiment [8] and in experiment [9] was 12.5 to 150 µg/mL (≈ 35.1 to 421 µM) throughout.

(Values after US9650395B2, “Antibacterial compounds and methods for use” (PTC Therapeutics, Inc., priority 2011, dated 2017).)
